From patent US20260199493A1 (priority 2021, published 2026)

Tests used:
HSA mRNA = settings: HSA-LR mice
Description: […] The HSA-LR mice were divided into 5 groups. […] […] RT-PCR was used to determine alternative splicing for specific genes (Atp2a1, Clcn1, Nfix, MBNL1). LC-mass was used to determine drug level in Quad, gastro, TA, Triceps, diaphragm, heart, kidney, liver, Brain, plasma. RNA-seq was used to determine the transcription level change between a treated disease model, an untreated disease model and wild-type. Fluorescence imaging was used to determine RNA Foci reduction after treatment with the EEV-oligo compound. […] Q-PCR was used to determine the reduction of mRNA level of actin-HSA after treatment.
(§1) RT-PCR was used to determine alternative splicing for specific genes (Atp2a1, Clcn1, Nfix, MBNL1). LC-mass was used to determine drug level in Quad, gastro, TA, Triceps, diaphragm, heart, kidney, liver, Brain, plasma. RNA-seq was used to determine the transcription level change between a treated disease model, an untreated disease model and wild-type. Fluorescence imaging was used to determine RNA Foci reduction after treatment with the EEV-oligo compound. Myotonia reduction was recorded 7 days after treatment with the EEV-oligo compound. Q-PCR was used to determine the reduction of mRNA level of actin-HSA after treatment.

[1] = tested on: MBNL1 downstream genes (Atp2a1, Nfix, Clcn1, Mbnl1); settings: 1 week
Description: (§2) 9 week old HSA-LR mice and control FVB mice were employed in a 1 week post single dose range study. The HSA-LR mice were divided into 5 groups. […] Tissues were harvested after 7 days. RT-PCR was used to determine alternative splicing for specific genes (Atp2a1, Clcn1, Nfix, MBNL1). LC-mass was used to determine drug level in Quad, gastro, TA, Triceps, diaphragm, heart, kidney, liver, Brain, plasma. RNA-seq was used to determine the transcription level change between a treated disease model, an untreated disease model and wild-type. Fluorescence imaging was used to determine RNA Foci reduction after treatment with the EEV-oligo compound. […] Q-PCR was used to determine the reduction of mRNA level of actin-HSA after treatment.
as §1

[2] = tested on: DM1 patient-derived muscle cells; settings: 30 μM, 4 days of differentiation
Description: (§3) Patient myoblasts were treated with 30 micromolar of EEV-oligo throughout 4 days of differentiation. Splicing correction was assessed by one-step RT-PCR. HCR—FISH and sequestered MBNL1 protein detection assays were used to detect RNA foci.
(§4) Patient myoblasts harbor 2600 CTG repeats within the DMPK 3′UTR. […] Splicing correction was assessed by one-step RT-PCR and Labchip analysis. Plotted mean f SD; n=4 HCR—FISH assay for CUG foci detection in place.

nuclear foci (CUG foci) = settings: DM1 patient-derived muscle cells, 30 μM, 4 days of differentiation
Description: as §3, §4

[3] = Description: as §2
CUG foci = settings: HSA-LR mouse, 1 week
Description: as §2

IRF-5 gene exon skipping = settings: RAW 264.7 cells, 5 μM
Description: Briefly, 150K cells/well were seeded in a 24 well plate in 0.5 ml DMEM. […] Following the second incubation, the RNA was harvested and RT-PCR was done using primers that detect exon 5 skipping in the IRF-5 gene.

IRF5 protein = settings: for efficacy relative to EEV-PMO-IRF5-1 / IRF-5 protein expression compared to cells stimulated with R848 / IRF-5 protein reduction: RAW 264.7 cells; for efficacy relative to EEV-PMO-IRF5-1 / relative potency compared to EEV-PMO-IRF5-1 (IRF5 protein expression): R848 stimulation; for efficacy relative to EEV-PMO-IRF5-1: on average; for IRF-5 protein expression compared to cells stimulated with R848: all tested concentrations; for IRF-5 protein reduction: concentrations as low as 2 μM, vs cells stimulated with R848; for relative potency compared to EEV-PMO-IRF5-1 (IRF5 protein expression): mouse macrophage cells, Western Blot
exon 23 of DMD = settings: MDX mice, single IV 20 mg/kg, day 5
GYS1 = settings: GAA knockout mice, single IV dose, one-week post-injection
[4] = tested on: Human Primary Renal Proximal Tubular Epithelial Cells (RPTECs); settings: 24 hours
[5] = in vivo
Description: as §2, §1

[6] = HSA-LR mice, 15, 30, 60, 90 mpk IV

Substance: Ac-PKKKRKV-AEEA-K(cyclo[FGFGRGRQ])-PEG12-OH [EEV-PMO-DM1-3]
- HSA mRNA knockdown (HSA mRNA; 80 mpk IV, 1-week and 4-week post-injection): HSA mRNA knockdown trend
- HSA mRNA knockdown in skeletal muscles (HSA mRNA; quadriceps, gastrocnemius, triceps, tibialis anterior, 1 week): 50-70%
- correction of MBNL1 downstream genes, gastrocnemius [1, 6]: dose dependent correction
- correction of MBNL1 downstream genes, quadriceps [1, 6]: dose dependent correction
- correction of MBNL1 downstream genes, tibialis anterior [1, 6]: dose dependent correction
- correction of MBNL1 downstream genes, triceps [1, 6]: dose dependent correction
- mis-splicing in gastrocnemius, triceps, tibialis anterior and quadricep ([1]; HSA-LR mice, 60 mpk oligo, 80 mpk whole drug): fully correct mis-splicing
- biomarker splicing correction [2]: significant biomarker splicing correction
- nuclear foci (nuclear foci (CUG foci)): reduction in nuclear foci
- myotonia ([3]; HSA-LR mice, 15, 30, 60 and 90 mpk, 7 days): dose dependent myotonia reduction
- hindlimb myotonia ([3]; HSA-LR mice, single dose 90 mg/kg, 1 week): did not exhibit obvious signs of hindlimb myotonia after induction
- CUG foci in TA muscle (CUG foci): reduces CUG foci

Substance: Ac-PKKKRKV-AEEA-K(cyclo[FGFGRRRQ])-PEG12-OH [EEV-PMO-IRF5-3]
- exon skipping compared to EEV-PMO-IRF5-1 (IRF-5 gene exon skipping): higher exon skipping
- efficacy relative to EEV-PMO-IRF5-1 (IRF5 protein): 5 fold
- IRF-5 protein expression compared to cells stimulated with R848 (IRF5 protein): significant reduction in IRF-5 protein expression
- IRF-5 protein reduction (IRF5 protein): about 80%
- relative potency compared to EEV-PMO-IRF5-1 (IRF5 protein expression) (IRF5 protein): significant improvement in relative potency

Substance: Ac-PKKKRKV-AEEA-K(cyclo[FGFRRRRQ])-PEG12-OH [EEV-PMO-IRF5-4]
- exon skipping compared to EEV-PMO-IRF5-1 (IRF-5 gene exon skipping): higher exon skipping
- efficacy relative to EEV-PMO-IRF5-1 (IRF5 protein): 5 fold
- IRF-5 protein expression compared to cells stimulated with R848 (IRF5 protein): significant reduction in IRF-5 protein expression
- IRF-5 protein reduction (IRF5 protein): about 80%
- relative potency compared to EEV-PMO-IRF5-1 (IRF5 protein expression) (IRF5 protein): significant improvement in relative potency

Substance: Ac-PKKKRKV-AEEA-K(cyclo[FfΦGrGrQ])-PEG12-OH [EEV-PMO-IRF5-2]
- exon skipping compared to EEV-PMO-IRF5-1 (IRF-5 gene exon skipping): higher exon skipping
- efficacy relative to EEV-PMO-IRF5-1 (IRF5 protein): 5 fold
- IRF-5 protein expression compared to cells stimulated with R848 (IRF5 protein): significant reduction in IRF-5 protein expression
- IRF-5 protein reduction (IRF5 protein): about 80%
- relative potency compared to EEV-PMO-IRF5-1 (IRF5 protein expression) (IRF5 protein): significant improvement in relative potency

Substance: Ac-PKKKRKV-AEEA-K(cyclo[GfFGrGrQ])-AEEA-K(N3)-NH2 [EEV-PMO-MDX-6]
- exon skipping in heart vs diaphragm, tibialis anterior, triceps (exon 23 of DMD): a lower level of exon skipping in heart tissue

Substance: Ac-PKKKRKV-PEG2-K(cyclo[Ff-Φ-Cit-r-Cit-rQ1)-PEG12-K(N3)-NH2 [EEV-PMO-GYS1-1]
- GYS1 expression in the diaphragm and cardiac muscle (GYS1): significant knockdown

Substance: Ac-PKKKRKV-PEG2-K(cyclo[Ff-Φ-GrGrQ])-PEG2-K(N3)-NH2 [EEV-PMO-GYS1-2]
- GYS1 expression in the diaphragm and cardiac muscle (GYS1): significant knockdown

Substance: CAGCAGCAGCAGCAGCAGCAG [PMO-DM1]
- toxicity (viability): no toxicity at highest concentration tested [4]: > 817 µM
- metabolite of EEV-PMO-DM1-3 [5]: major metabolite detected in vivo
